Test results as given in patent publication US20240076293A1, “Compositions and Methods for Inhibiting Fibrosis, Inflammation and Cancer” (Georgia Tech Research Corporation, priority 2020, published 2024).
Read-outs that look alike come from different tables or passages of the source.

Tests used:
Format in all cases: cell-based
Hep-G2 = assay: Anti-proliferation IC50, Hep-G2; conditions: Homo sapiens, HepG2
VERO = assay: Anti-proliferation IC50, VERO; conditions: Chlorocebus sabaeus
MDA-MB-231 = assay: Anti-proliferation IC50, MDA-MB-231; conditions: Homo sapiens
[1] = Anti-proliferation IC50, MRC-5; conditions: human, MRC-5 cells; Table 1, compounds of formula I; NI = no inhibition up to 500 μM
A549 = assay: Anti-proliferation IC50, A549; conditions: Homo sapiens
MCF-7 = assay: Anti-proliferation IC50, MCF-7; conditions: Homo sapiens, MCF7
MRC-5 = assay: Anti-proliferation IC50, MRC-5; conditions: Homo sapiens, MRC5; Table 2, compounds of formula II
[2] = Table 1, compounds of formula I, NI = no inhibition up to 500 μM, read-out: Hep-G2 (IC50)
[3] = Table 1, compounds of formula I, NI = no inhibition up to 500 μM, read-out: VERO (IC50)
[4] = Table 1, compounds of formula I, NI = no inhibition up to 500 μM, read-out: MDA-MB-231 (IC50)
[5] = Table 1, compounds of formula I, NI = no inhibition up to 500 μM, read-out: A549 (IC50)
[6] = Table 1, compounds of formula I, NI = no inhibition up to 500 μM, read-out: MCF-7 (IC50)
[7] = Table 2, compounds of formula II, read-out: Anti-proliferation IC50 Hep-G2
[8] = Table 2, compounds of formula II, read-out: Anti-proliferation IC50 VERO
[9] = Table 2, compounds of formula II, read-out: Anti-proliferation IC50 A549
[10] = Anti-proliferation IC50 for the new compounds, read-out: Hep-G2 (IC50 μM)
[11] = Anti-proliferation IC50 for the new compounds, read-out: VERO (IC50 μM)
[12] = Anti-proliferation IC50 for the new compounds, read-out: MDA-MB-231 (IC50 μM)
[13] = Anti-proliferation IC50 for the new compounds, read-out: MCF-7 (IC50 μM)

Compound	IC50 (Hep-G2; [7])	IC50 (A549; [9])	IC50 (VERO; [8])	IC50 (MRC-5)	further results
O=C(O)CCCCC1CCSS1 (centres unmarked) [Lipoic acid (ALA), Lipoic acid, reference compound]	–	–	–	–	IC50 (Hep-G2; [2]): > 500 µM; IC50 (VERO; [3]): > 500 µM; IC50 (MDA-MB-231; [4]): > 500 µM; IC50 [1]: > 500 µM; IC50 (A549; [5]): > 500 µM; IC50 (MCF-7; [6]): > 500 µM
CC[C@@H]1OC(=O)[C@@H](C)[C@H](O)[C@@H](C)[C@H](O[C@@H]2O[C@H](C)C[C@H](N(C)C)[C@H]2OC(=O)CCCC[C@H]2CCSS2)C(C)(O)C[C@H](C)CN(C)[C@@H](C)[C@H](O)[C@@]1(C)O (some centres unmarked)	225 ± 12.8 µM	282 ± 14.3 µM	273 ± 26.9 µM	143 ± 17.1 µM	IC50 (MDA-MB-231; Table 2, compounds of formula II, read-out: Anti-proliferation IC50 MDA-MB-231): 400 ± 32.4 µM
CC[C@H]1OC(=O)[C@H](C)[C@@H](O[C@H]2C[C@@](C)(OC)[C@@H](O)[C@H](C)O2)[C@H](C)[C@@H](O[C@@H]2O[C@H](C)C[C@H](N(C)C(=O)CCCCC(CCSCc3ccccc3)SCc3ccccc3)[C@H]2O)[C@](C)(O)C[C@@H](C)CN(C)[C@H](C)[C@@H](O)[C@]1(C)O (some centres unmarked) [AZM-613]	–	–	–	–	IC50 (Hep-G2; [10]): 2.9 µM; IC50 (VERO; [11]): 6.5 µM; IC50 (MDA-MB-231; [12]): 2.1 µM; IC50 (MCF-7; [13]): 2.8 µM
O=C(O)CCCCC(CCSCc1ccccc1)SCc1ccccc1 (centres unmarked) [CIP-613, reference compound]	–	–	–	–	IC50 (Hep-G2; [10]): 232 µM; IC50 (VERO; [11]): 224 µM; IC50 (MDA-MB-231; [12]): 236 µM; IC50 (MCF-7; [13]): 206 µM
CCCCOC(=O)/C=C/C(=O)N(C)[C@@H]1C[C@H](C)O[C@H](O[C@@H]2[C@H](C)[C@H](O[C@H]3C[C@@](C)(OC)[C@@H](O)[C@H](C)O3)[C@H](C)C(=O)O[C@H](CC)[C@@](C)(O)[C@@H](O)[C@@H](C)C(=O)[C@H](C)C[C@@]2(C)OC)[C@H]1O	–	–	–	–	IC50 (Hep-G2; [2]): 209 ± 11.2 µM; IC50 (VERO; [3]): 68.3 ± 16.8 µM; IC50 (MDA-MB-231; [4]): 28.4 ± 3.9 µM; IC50 [1]: 44.9 ± 0.6 µM; IC50 (A549; [5]): > 500 µM; IC50 (MCF-7; [6]): 72.3 ± 5.2 µM
CC[C@H]1OC(=O)[C@H](C)[C@@H](O[C@H]2C[C@@](C)(OC)[C@@H](O)[C@H](C)O2)[C@H](C)[C@@H](O[C@@H]2O[C@H](C)C[C@H](N(C)C)C2OC(=O)CCCCC(CCSCc2ccccc2)SCc2ccccc2)[C@](C)(O)C[C@@H](C)CN(C)[C@H](C)[C@@H](O)[C@]1(C)O (some centres unmarked) [AO-03-032]	–	–	–	–	IC50 (Hep-G2; [10]): 4.2 µM; IC50 (VERO; [11]): 10.4 µM; IC50 (MDA-MB-231; [12]): 6.4 µM; IC50 (A549; Anti-proliferation IC50 for the new compounds, read-out: A549 (IC50 μM)): 7.6 µM
CC[C@@H]1OC(=O)[C@@H](C)[C@H](O)[C@@H](C)[C@H](O[C@H]2O[C@@H](C)C[C@@H](N(C)Cc3ccc(-c4cn(CCNC(=O)CCCC[C@H]5CCSS5)nn4)cc3)[C@@H]2O)C(C)(O)C[C@H](C)CN(C)[C@@H](C)[C@H](O)[C@@]1(C)O (some centres unmarked)	14.8 ± 2.1 µM	27.4 ± 0.5 µM	47.7 ± 6.2 µM	17.9 ± 0.5 µM	–
CC[C@@H]1OC(=O)[C@@H](C)[C@H](O)[C@@H](C)[C@H](O[C@H]2O[C@@H](C)C[C@@H](N(C)Cc3ccc(-c4cn(CCCNC(=O)CCCC[C@H]5CCSS5)nn4)cc3)[C@@H]2O)C(C)(O)C[C@H](C)CN(C)[C@@H](C)[C@H](O)[C@@]1(C)O (some centres unmarked)	157 ± 11.4 µM	92.9 ± 13 µM	168 ± 19.7 µM	145 ± 3.5 µM	–
CC[C@@H]1OC(=O)[C@@H](C)[C@H](O[C@H]2C[C@@](C)(OC)[C@@H](O)[C@H](C)O2)[C@@H](C)[C@H](O[C@H]2O[C@@H](C)C[C@@H](N(C)C)[C@@H]2OC(=O)/C=C/C=C/c2ccc3c(c2)OCO3)C(C)(O)C[C@H](C)CN(C)[C@@H](C)[C@H](O)[C@@]1(C)O (some centres unmarked)	5 ± 0.5 µM	15.6 ± 2.6 µM	13.2 ± 1.5 µM	3.8 ± 0.8 µM	–

Second part, led by results:

IC50 (Hep-G2; [7])	IC50 (A549; [9])	Compound	IC50 (VERO; [8])	IC50 (MRC-5)	further results
11.1 ± 0.3 µM	18.4 ± 4.4 µM	CC[C@H]1OC(=O)[C@H](C)[C@@H](O[C@H]2C[C@@](C)(OC)[C@@H](O)[C@H](C)O2)[C@H](C)[C@@H](O[C@@H]2O[C@H](C)C[C@H](N(C)Cc3ccc(-c4cn(Cc5ccc(-n6cc(C)ccc6=O)cc5)nn4)cc3)[C@H]2O)[C@](C)(O)C[C@@H](C)CN(C)[C@H](C)[C@@H](O)[C@]1(C)O [Compound 11c]	16.2 ± 2.8 µM	13.4 ± 0.1 µM	–
2.6 ± 0.1 µM	5 ± 0.2 µM	CC[C@H]1OC(=O)[C@H](C)[C@@H](O[C@H]2C[C@@](C)(OC)[C@@H](O)[C@H](C)O2)[C@H](C)[C@@H](O[C@@H]2O[C@H](C)C[C@H](N(C)Cc3ccc(-c4cn(CCCCc5ccc(-n6cc(C)ccc6=O)cc5)nn4)cc3)[C@H]2O)[C@](C)(O)C[C@@H](C)CN(C)[C@H](C)[C@@H](O)[C@]1(C)O [Compound 15c]	5.9 ± 0.1 µM	5.7 ± 0.1 µM	–
27.7 ± 3.3 µM	35.2 ± 5.4 µM	CC[C@H]1OC(=O)[C@H](C)[C@@H](O[C@H]2C[C@@](C)(OC)[C@@H](O)[C@H](C)O2)[C@H](C)[C@@H](O[C@@H]2O[C@H](C)C[C@H](N(C)Cc3cn(CCCCc4ccc(-n5cc(C)ccc5=O)cc4)nn3)[C@H]2O)[C@](C)(O)C[C@@H](C)CN(C)[C@H](C)[C@@H](O)[C@]1(C)O [Compound 15b]	53.2 ± 0.1 µM	36.1 ± 6.1 µM	–
52.2 ± 1 µM	43.2 ± 5.7 µM	CC[C@H]1OC(=O)[C@H](C)[C@@H](O[C@H]2C[C@@](C)(OC)[C@@H](O)[C@H](C)O2)[C@H](C)[C@@H](O[C@@H]2O[C@H](C)C[C@H](N(C)CCCCc3ccc(-n4cc(C)ccc4=O)cc3)[C@H]2O)[C@](C)(O)C[C@@H](C)CN(C)[C@H](C)[C@@H](O)[C@]1(C)O [Compound 15a]	23.9 ± 1.7 µM	5.9 ± 0.1 µM	–
33 ± 5.4 µM	47.2 ± 5.1 µM	CC[C@H]1OC(=O)[C@H](C)[C@@H](O[C@H]2C[C@@](C)(OC)[C@@H](O)[C@H](C)O2)[C@H](C)[C@@H](O[C@@H]2O[C@H](C)C[C@H](N(C)Cc3ccc(-n4cc(C)ccc4=O)cc3)[C@H]2O)[C@](C)(O)C[C@@H](C)CN(C)[C@H](C)[C@@H](O)[C@]1(C)O [Compound 11a]	47.2 ± 0.4 µM	55.8 ± 1.9 µM	–
2.8 µM	6.1 ± 0.3 µM	CC[C@H]1OC(=O)[C@H](C)[C@@H](O[C@H]2C[C@@](C)(OC)[C@@H](O)[C@H](C)O2)[C@H](C)[C@@H](O[C@@H]2O[C@H](C)C[C@H](N(C)CCCCCC#Cc3ccc(-n4cc(C)ccc4=O)cc3)[C@H]2O)[C@](C)(O)C[C@@H](C)CN(C)[C@H](C)[C@@H](O)[C@]1(C)O [Compound 20e]	4.7 ± 0.3 µM	2.2 ± 0.1 µM	–
45.2 ± 7.4 µM	42.7 ± 8.4 µM	CC[C@H]1OC(=O)[C@H](C)[C@@H](O[C@H]2C[C@@](C)(OC)[C@@H](O)[C@H](C)O2)[C@H](C)[C@@H](O[C@@H]2O[C@H](C)C[C@H](N(C)CCCC#Cc3ccc(-n4cc(C)ccc4=O)cc3)[C@H]2O)[C@](C)(O)C[C@@H](C)CN(C)[C@H](C)[C@@H](O)[C@]1(C)O [Compound 20c]	36.4 ± 3.8 µM	41.7 ± 0.1 µM	–
24.8 ± 1.7 µM	31.2 ± 4.8 µM	CC[C@H]1OC(=O)[C@H](C)[C@@H](O[C@H]2C[C@@](C)(OC)[C@@H](O)[C@H](C)O2)[C@H](C)[C@@H](O[C@@H]2O[C@H](C)C[C@H](N(C)CCC#Cc3ccc(-n4cc(C)ccc4=O)cc3)[C@H]2O)[C@](C)(O)C[C@@H](C)CN(C)[C@H](C)[C@@H](O)[C@]1(C)O [Compound 20b]	28.5 ± 1.8 µM	19.1 ± 2.6 µM	–
27.2 ± 2.3 µM	40.8 ± 4 µM	CC[C@H]1OC(=O)[C@H](C)[C@@H](O[C@H]2C[C@@](C)(OC)[C@@H](O)[C@H](C)O2)[C@H](C)[C@@H](O[C@@H]2O[C@H](C)C[C@H](N(C)CCc3ccc(-n4cc(C)ccc4=O)cc3)[C@H]2O)[C@](C)(O)C[C@@H](C)CN(C)[C@H](C)[C@@H](O)[C@]1(C)O [Compound 13a]	30.3 ± 5.2 µM	36.1 ± 3.3 µM	–
53.4 ± 3.3 µM	55.9 ± 6.4 µM	CC[C@H]1OC(=O)[C@H](C)[C@@H](O[C@H]2C[C@@](C)(OC)[C@@H](O)[C@H](C)O2)[C@H](C)[C@@H](O[C@@H]2O[C@H](C)C[C@H](N(C)CC#Cc3ccc(-n4cc(C)ccc4=O)cc3)[C@H]2O)[C@](C)(O)C[C@@H](C)CN(C)[C@H](C)[C@@H](O)[C@]1(C)O [Compound 20a]	71.4 ± 6.3 µM	23.3 ± 3.3 µM	–
163.4 ± 1.6 µM	144 ± 24.5 µM	CC[C@H]1OC(=O)[C@H](C)[C@@H](O[C@H]2C[C@@](C)(OC)[C@@H](O)[C@H](C)O2)[C@H](C)[C@@H](O[C@@H]2O[C@H](C)C[C@H](N(C)Cc3cn(CCc4ccc(-n5cc(C)ccc5=O)cc4)nn3)[C@H]2O)[C@](C)(O)C[C@@H](C)CN(C)[C@H](C)[C@@H](O)[C@]1(C)O [Compound 13b]	151 ± 30.6 µM	172 ± 26.9 µM	–
21.8 ± 0.4 µM	15.8 ± 3 µM	CC[C@H]1OC(=O)[C@H](C)[C@@H](O[C@H]2C[C@@](C)(OC)[C@@H](O)[C@H](C)O2)[C@H](C)[C@@H](O[C@@H]2O[C@H](C)C[C@H](N(C)Cc3ccc(-c4cn(CCc5ccc(-n6cc(C)ccc6=O)cc5)nn4)cc3)[C@H]2O)[C@](C)(O)C[C@@H](C)CN(C)[C@H](C)[C@@H](O)[C@]1(C)O [Compound 13c]	22.6 ± 4.9 µM	13.3 ± 0.9 µM	–
